Experimental data from ChEMBL document CHEMBL4118118, “Hydrophobic structure of hairpin ten-ring pyrrole-imidazole polyamides enhances tumor tissue accumulation/retention in vivo” (Bioorg Med Chem, 2018).

Experiments:
[1] = Drug uptake in tumor of nude BALB/c mouse xenografted with human LS180 cells assessed as increase in mean fluorescence intensity at 1 mg/kg, iv measured at 0.25 to 72 hrs post administration by fluorescence-based imaging analysis; format: ADME, organism-based, Neoplasm; settings: in vivo
[2] = Drug localization in nucleus of human SW480 cells at 1 uM after 2 hrs by DAPI-fluoresecence based confocal laser microscopy; format: ADME, subcellular; settings: sw480, 2 h
[3] = Drug localization in nucleus of human LS180 cells at 1 uM after 2 hrs by DAPI-fluoresecence based confocal laser microscopy; format: ADME, subcellular; settings: ls180, 2 h
[4] = Retention time of the compound by reverse-phase HPLC method; format: physicochemical
[5] = Octanol water partition coefficient, log P of the compound by reverse-phase HPLC method; format: physicochemical
[6] = Drug uptake in tumor of nude BALB/c mouse xenografted with human SW480 cells at 1 mg/kg, iv measured up to 22 days post administration by fluorescence-based imaging analysis; format: ADME, organism-based, Neoplasm; settings: in vivo, 528 h
[7] = Drug uptake in tumor of nude BALB/c mouse xenografted with human LS180 cells at 1 mg/kg, iv measured at 9 days post administration by DAPI-based confocal laser microscopic analysis; format: ADME, organism-based, Neoplasm; settings: in vivo, 216 h
[8] = Drug uptake in human LS180 cells up to 1 uM in presence of 4 degC temperature for 2 hrs by fluorospectrometry; format: ADME, cell-based; settings: ls180, 2 h
[9] = Drug uptake in nude BALB/c mouse body cavity xenografted with human LS180 cells assessed as increase in mean fluorescence intensity at 1 mg/kg, iv measured at 1 hr post administration by fluorescence-based imaging analysis; format: ADME, organism-based; settings: in vivo
[10] = Drug uptake in tumor of human SW480 cells xenografted in nude BALB/c mouse assessed as increase in mean fluorescence intensity at 1 mg/kg, iv measured at 0.25 to 72 hrs post administration by fluorescence-based imaging analysis; format: ADME, organism-based, Neoplasm; settings: in vivo
[11] = Drug uptake in tumor of nude BALB/c mouse xenografted with human LS180 cells at 1 mg/kg, iv measured at 3 days post administration by DAPI-based confocal laser microscopic analysis; format: ADME, organism-based, Neoplasm; settings: in vivo, 72 h
[12] = Drug uptake in tumor of nude BALB/c mouse xenografted with human LS180 cells at 1 mg/kg, iv measured at 48 hrs post administration by fluorescence-based imaging analysis; format: ADME, organism-based, Neoplasm; settings: in vivo
[13] = Drug uptake in kidneys of nude BALB/c mouse xenografted with human LS180 cells at 1 mg/kg, iv measured at 3 days post administration by DAPI-based confocal laser microscopic analysis; format: ADME, organism-based, Kidney; settings: in vivo, 72 h
[14] = Drug uptake in human SW480 cells xenografted in nude BALB/c mouse at 1 mg/kg, iv measured after 9 days post administration by fluorescence-based imaging analysis; format: ADME, organism-based, Neoplasm; settings: in vivo, 216 h
[15] = Drug uptake in tumor of nude BALB/c mouse xenografted with human LS180 cells assessed as increase in mean fluorescence intensity at 1 mg/kg, iv measured at 3 to 72 hrs post administration by fluorescence-based imaging analysis; format: ADME, organism-based, Neoplasm; settings: in vivo
[16] = Drug uptake in human LS180 cells after 24 hrs by fluorospectrometry; format: ADME, cell-based; settings: ls180, 24 h
[17] = Drug uptake in nude BALB/c mouse body cavity xenografted with human LS180 cells assessed as increase in mean fluorescence intensity at 1 mg/kg, iv measured at 24 hrs post administration by fluorescence-based imaging analysis; format: ADME, organism-based; settings: in vivo
[18] = Drug uptake in tumor of nude BALB/c mouse xenografted with human LS180 cells at 1 mg/kg, iv measured after 9 days post administration by fluorescence-based imaging analysis; format: ADME, organism-based, Neoplasm; settings: in vivo, 216 h
[19] = Drug uptake in tumor of nude BALB/c mouse xenografted with human LS180 cells at 1 mg/kg, iv measured at 2 hrs post administration by fluorescence-based imaging analysis; format: ADME, organism-based, Neoplasm; settings: in vivo
[20] = Drug uptake in lungs of nude BALB/c mouse xenografted with human LS180 cells at 1 mg/kg, iv measured at 3 to 9 days post administration by DAPI-based confocal laser microscopic analysis; format: ADME, organism-based, Lung; settings: in vivo
[21] = Drug uptake in human SW480 cells after 24 hrs by fluorospectrometry; format: ADME, cell-based; settings: sw480, 24 h
[22] = Drug uptake in spleen of nude BALB/c mouse xenografted with human LS180 cells at 1 mg/kg, iv measured at 3 to 9 days post administration by DAPI-based confocal laser microscopic analysis; format: ADME, organism-based; settings: in vivo
[23] = Drug uptake in liver of nude BALB/c mouse xenografted with human LS180 cells at 1 mg/kg, iv measured at 3 days post administration by DAPI-based confocal laser microscopic analysis; format: ADME, organism-based; settings: in vivo, 72 h
[24] = Drug uptake in heart of nude BALB/c mouse xenografted with human LS180 cells at 1 mg/kg, iv measured at 3 to 9 days post administration by DAPI-based confocal laser microscopic analysis; format: ADME, organism-based; settings: in vivo
[25] = Drug uptake in human LS180 cells up to 1 uM after 24 hrs by fluorospectrometry; format: ADME, cell-based; settings: ls180, 24 h
Mus musculus [26] = assay: Drug uptake in non-tumor tissue area of nude BALB/c mouse xenografted with human LS180 cells assessed as increase in mean fluorescence intensity at 1 mg/kg, iv measured at 24 hrs post administration by fluorescence-based imaging analysis; format: ADME, organism-based; settings: in vivo
[27] = Drug uptake in human SW480 cells up to 1 uM after 24 hrs by fluorospectrometry; format: ADME, cell-based; settings: sw480, 24 h
[28] = Drug uptake in tumor of nude BALB/c mouse xenografted with human LS180 cells assessed as mean fluorescence intensity at 1 mg/kg, iv measured at 72 hrs post administration by fluorescence-based imaging analysis; format: ADME, organism-based, Neoplasm; settings: in vivo
[29] = Drug uptake in tumor of nude BALB/c mouse xenografted with human LS180 cells assessed as increase in mean fluorescence intensity at 1 mg/kg, iv measured at 6 hrs post administration by fluorescence-based imaging analysis; format: ADME, organism-based, Neoplasm; settings: in vivo
Mus musculus [30] = assay: Drug uptake in non-tumor tissue area of nude BALB/c mouse xenografted with human LS180 cells assessed as increase in mean fluorescence intensity at 1 mg/kg, iv measured at 5 mins post administration by fluorescence-based imaging analysis; format: ADME, organism-based; settings: in vivo
[31] = Drug uptake in tumor of nude BALB/c mouse xenografted with human LS180 cells assessed as increase in mean fluorescence intensity at 1 mg/kg, iv measured at 3 hrs post administration by fluorescence-based imaging analysis; format: ADME, organism-based, Neoplasm; settings: in vivo
[32] = Drug uptake in tumor of nude BALB/c mouse xenografted with human LS180 cells assessed as increase in mean fluorescence intensity at 1 mg/kg, iv measured at 48 hrs post administration by fluorescence-based imaging analysis; format: ADME, organism-based, Neoplasm; settings: in vivo
[33] = Drug uptake in tumor of nude BALB/c mouse xenografted with human LS180 cells at 1 mg/kg, iv measured after 4 days post administration by fluorescence-based imaging analysis; format: ADME, organism-based, Neoplasm; settings: in vivo, 96 h

| Compound | Drug uptake [2] | Drug uptake [3] | Retention_time [4] [min] | logP [5] | Drug uptake [7] | Drug uptake [8] | Drug uptake [10] | Drug uptake [11] | Drug uptake [12] [%] | Drug uptake [13] | Drug uptake [17] | Drug uptake [18] | Drug uptake [19] | Drug uptake [20] | Drug uptake [22] | Drug uptake [23] | Drug uptake [24] | Drug uptake [25] | Drug uptake [27] | also measured |
| --- | --- | --- | --- | --- | --- | --- | --- | --- | --- | --- | --- | --- | --- | --- | --- | --- | --- | --- | --- | --- |
| O=C(O)c1ccccc1-c1c2ccc(=O)cc-2oc2cc(O)ccc12 | Not Active | Not Active | – | – | – | – | – | – | – | – | – | – | – | – | – | – | – | – | – | Drug uptake [1]: Not Active |
| CN(C)CCCNC(=O)CCNC(=O)c1cc(NC(=O)c2cc(NC(=O)CCNC(=O)c3cc(NC(=O)c4cc(NC(=O)c5cc(NC(=O)CCCNC(=O)c6cc(NC(=O)c7nc(NC(=O)c8nc(NC(=O)CCNC(=O)c9nc(NC(=O)c%10nc(NC(=O)CCNC(=S)Nc%11ccc(-c%12c%13ccc(=O)cc-%13oc%13cc(O)ccc%12%13)c(C(=O)O)c%11)cn%10C)cn9C)cn8C)cn7C)cn6C)cn5C)cn4C)cn3C)cn2C)cn1C | – | – | 10.48 | 1.36 | – | – | – | – | – | – | – | – | – | – | – | – | – | – | – | – |
| CN(C)CCCNC(=O)CCNC(=O)c1cc(NC(=O)c2cc(NC(=O)CCNC(=O)c3cc(NC(=O)c4cc(NC(=O)c5cc(NC(=O)CCCNC(=O)c6cc(NC(=O)c7cc(NC(=O)c8cc(NC(=O)CCNC(=O)c9nc(NC(=O)c%10cc(NC(=O)CCNC(=S)Nc%11ccc(-c%12c%13ccc(=O)cc-%13oc%13cc(O)ccc%12%13)c(C(=O)O)c%11)cn%10C)cn9C)cn8C)cn7C)cn6C)cn5C)cn4C)cn3C)cn2C)cn1C | Active | Active | 11.73 | 1.5 | Active | Active | Active | Active | 50 | Active | Not Active | Active | Active | Not Active | Not Active | Active | Not Active | – | – | Drug uptake [6]: Active; Drug uptake [9]: Active; Drug uptake [14]: Active; Drug uptake [15]: Active; Drug uptake [16]: Dose-dependent effect; Drug uptake [21]: Dose-dependent effect |
| CN(C)CCCNC(=O)CCNC(=O)c1cc(NC(=O)c2cc(NC(=O)CCNC(=O)c3cc(NC(=O)c4cc(NC(=O)c5cc(NC(=O)CCCNC(=O)c6cc(NC(=O)c7cc(NC(=O)c8nc(NC(=O)CCNC(=O)c9nc(NC(=O)c%10nc(NC(=O)CCNC(=S)Nc%11ccc(-c%12c%13ccc(=O)cc-%13oc%13cc(O)ccc%12%13)c(C(=O)O)c%11)cn%10C)cn9C)cn8C)cn7C)cn6C)cn5C)cn4C)cn3C)cn2C)cn1C | Active | Active | 10.97 | 1.42 | Not Active | – | Active | Active | 50 | Active | – | Not Active | Active | Not Active | Not Active | Active | Not Active | Active | Active | Drug uptake (Mus musculus [26]): Not Active; Drug uptake [28]: Active; Drug uptake [29]: Active; Drug uptake (Mus musculus [30]): Active |
| CN(C)CCCNC(=O)CCNC(=O)c1cc(NC(=O)c2cc(NC(=O)CCNC(=O)c3cc(NC(=O)c4cc(NC(=O)c5cc(NC(=O)CCCNC(=O)c6nc(NC(=O)c7nc(NC(=O)c8nc(NC(=O)CCNC(=O)c9nc(NC(=O)c%10nc(NC(=O)CCNC(=S)Nc%11ccc(-c%12c%13ccc(=O)cc-%13oc%13cc(O)ccc%12%13)c(C(=O)O)c%11)cn%10C)cn9C)cn8C)cn7C)cn6C)cn5C)cn4C)cn3C)cn2C)cn1C | Active | Active | 8.86 | 1.19 | Not Active | Not Active | Active | Active | 50 | Active | Not Active | – | Active | Not Active | Not Active | Active | Not Active | Active | Active | Drug uptake [31]: Active; Drug uptake [32]: Not Active; Drug uptake [33]: Not Active |
| CN(C)CCCNC(=O)CCNC(=O)c1cc(NC(=O)c2cc(NC(=O)CCNC(=O)c3cc(NC(=O)c4cc(NC(=O)c5cc(NC(=O)CCCNC(=O)c6cc(NC(=O)c7cc(NC(=O)c8cc(NC(=O)CCNC(=O)c9nc(NC(=O)c%10nc(NC(=O)CCNC(=S)Nc%11ccc(-c%12c%13ccc(=O)cc-%13oc%13cc(O)ccc%12%13)c(C(=O)O)c%11)cn%10C)cn9C)cn8C)cn7C)cn6C)cn5C)cn4C)cn3C)cn2C)cn1C | – | – | 11.4 | 1.46 | – | – | – | – | – | – | – | – | – | – | – | – | – | – | – | – |
